Source: publication PMC6199744, “Development of Chemical Proteomics for the Folateome and Analysis of the Kinetoplastid Folateome” (ACS Infectious Diseases, 2018)

What was measured:
Format in all cases: binding
[1] = target: T1, HeLa cell extract proteins (Homo sapiens, UniProt O95619); conditions: HeLa; captured protein YEATS4
T1 construct: endogenous in cells; host or cells: HeLa cell extract

[2] = target: T2, HeLa cell extract proteins (Homo sapiens, UniProt Q15436); conditions: HeLa; protein SEC23A
T2 construct: endogenous in cells; host or cells: HeLa cell extract

[3] = target: T3, HeLa cell extract proteins (Homo sapiens, UniProt P52272); conditions: HeLa; captured protein HNRNPM
T3 construct: endogenous in cells; host or cells: HeLa cell extract
T3 sequence (P52272 1-730): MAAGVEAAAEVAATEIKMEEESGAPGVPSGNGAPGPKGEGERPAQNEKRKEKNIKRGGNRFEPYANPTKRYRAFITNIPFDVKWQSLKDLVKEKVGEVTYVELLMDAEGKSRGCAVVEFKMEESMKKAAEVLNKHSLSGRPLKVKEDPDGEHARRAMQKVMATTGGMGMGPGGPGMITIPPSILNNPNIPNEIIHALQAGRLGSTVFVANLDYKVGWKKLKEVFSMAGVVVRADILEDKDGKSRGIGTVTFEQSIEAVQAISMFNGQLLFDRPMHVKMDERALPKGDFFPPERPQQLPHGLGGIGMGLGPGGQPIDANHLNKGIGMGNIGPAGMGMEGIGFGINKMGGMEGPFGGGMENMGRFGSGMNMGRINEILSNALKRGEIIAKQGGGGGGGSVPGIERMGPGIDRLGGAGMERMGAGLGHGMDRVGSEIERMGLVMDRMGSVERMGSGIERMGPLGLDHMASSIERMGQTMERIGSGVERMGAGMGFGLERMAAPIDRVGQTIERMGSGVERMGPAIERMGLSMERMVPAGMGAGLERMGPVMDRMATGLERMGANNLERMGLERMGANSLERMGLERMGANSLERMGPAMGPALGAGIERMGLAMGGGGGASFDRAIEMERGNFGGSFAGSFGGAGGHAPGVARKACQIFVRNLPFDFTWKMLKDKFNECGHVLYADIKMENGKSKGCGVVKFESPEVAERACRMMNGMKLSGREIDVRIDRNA

[4] = target: T4, HeLa cell extract proteins (Homo sapiens, UniProt P49748); conditions: HeLa; protein ACADVL
T4 construct: endogenous in cells; host or cells: HeLa cell extract
T4 sequence (P49748 41-655): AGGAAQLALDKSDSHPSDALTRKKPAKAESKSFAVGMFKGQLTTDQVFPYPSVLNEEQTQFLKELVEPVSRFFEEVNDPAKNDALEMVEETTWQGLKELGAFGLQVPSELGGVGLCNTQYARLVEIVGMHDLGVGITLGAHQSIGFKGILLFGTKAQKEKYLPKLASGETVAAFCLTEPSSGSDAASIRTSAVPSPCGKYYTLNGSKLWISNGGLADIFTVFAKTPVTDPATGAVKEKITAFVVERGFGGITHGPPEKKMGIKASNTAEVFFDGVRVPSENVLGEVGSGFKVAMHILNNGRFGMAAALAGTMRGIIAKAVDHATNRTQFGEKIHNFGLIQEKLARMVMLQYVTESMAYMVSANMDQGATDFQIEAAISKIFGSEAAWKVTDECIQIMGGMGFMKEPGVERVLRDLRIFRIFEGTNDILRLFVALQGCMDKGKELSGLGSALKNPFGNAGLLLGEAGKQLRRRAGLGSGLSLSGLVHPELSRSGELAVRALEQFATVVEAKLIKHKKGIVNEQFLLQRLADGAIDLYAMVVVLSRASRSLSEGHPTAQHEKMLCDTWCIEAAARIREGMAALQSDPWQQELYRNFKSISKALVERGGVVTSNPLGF

[5] = target: T5, HeLa cell extract proteins (Homo sapiens, UniProt P38646); conditions: HeLa; captured protein HSPA9
T5 construct: endogenous in cells; host or cells: HeLa cell extract

[6] = target: T6, HeLa cell extract proteins (Homo sapiens, UniProt Q63HN8); conditions: HeLa; protein KIAA1618
T6 construct: endogenous in cells; host or cells: HeLa cell extract

[7] = target: T7, HeLa cell extract proteins (Homo sapiens, UniProt Q15120); conditions: HeLa; protein PDK3
T7 construct: endogenous in cells; host or cells: HeLa cell extract

[8] = target: T8, HeLa cell extract proteins (Homo sapiens, UniProt P12956); conditions: HeLa; protein XRCC6
T8 construct: endogenous in cells; host or cells: HeLa cell extract

[9] = target: T9, HeLa cell extract proteins (Homo sapiens, UniProt P62820); conditions: HeLa; protein RAB1A
T9 construct: endogenous in cells; host or cells: HeLa cell extract

[10] = target: T10, HeLa cell extract proteins (Homo sapiens, UniProt Q99873); conditions: HeLa; protein PRMT1
T10 construct: endogenous in cells; host or cells: HeLa cell extract

[11] = target: T11, HeLa cell extract proteins (Homo sapiens, UniProt P06753); conditions: protein TPM3; HeLa
T11 construct: endogenous in cells; host or cells: HeLa cell extract

[12] = target: T12, HeLa cell extract proteins (Homo sapiens, UniProt P49411); conditions: protein TUFM; HeLa
T12 construct: endogenous in cells; host or cells: HeLa cell extract

[13] = target: T13, HeLa cell extract proteins (Homo sapiens, UniProt Q14203); conditions: protein DCTN1; HeLa
T13 construct: endogenous in cells; host or cells: HeLa cell extract

[14] = target: T14, HeLa cell extract proteins (Homo sapiens, UniProt Q9NX63); conditions: HeLa; protein CHCHD3
T14 construct: endogenous in cells; host or cells: HeLa cell extract
T14 sequence (Q9NX63 1-227): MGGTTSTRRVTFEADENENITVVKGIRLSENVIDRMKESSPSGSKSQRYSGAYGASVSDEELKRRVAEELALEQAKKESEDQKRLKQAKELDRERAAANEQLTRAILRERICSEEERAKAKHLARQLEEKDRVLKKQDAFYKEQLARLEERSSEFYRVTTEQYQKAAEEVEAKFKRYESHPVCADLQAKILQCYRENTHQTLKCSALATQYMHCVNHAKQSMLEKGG

[15] = target: T15, HeLa cell extract proteins (Homo sapiens, UniProt P04183); conditions: HeLa; protein TK1 (29 KDA PROTEIN)
T15 construct: endogenous in cells; host or cells: HeLa cell extract
T15 sequence (P04183 1-234): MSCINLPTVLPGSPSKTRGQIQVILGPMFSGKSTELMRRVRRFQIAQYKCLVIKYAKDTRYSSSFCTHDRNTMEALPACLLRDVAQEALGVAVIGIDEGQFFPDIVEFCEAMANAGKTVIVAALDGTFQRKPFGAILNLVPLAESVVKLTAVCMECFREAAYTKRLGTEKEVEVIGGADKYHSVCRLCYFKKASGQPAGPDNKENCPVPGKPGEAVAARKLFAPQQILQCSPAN

[16] = target: T16, HeLa cell extract proteins (Homo sapiens, UniProt Q71U36); conditions: HeLa; protein TUBA1A
T16 construct: endogenous in cells; host or cells: HeLa cell extract

[17] = target: T17, HeLa cell extract proteins (Homo sapiens, UniProt P11940); conditions: HeLa; protein PABPC1
T17 construct: endogenous in cells; host or cells: HeLa cell extract
T17 sequence (P11940 whole entry): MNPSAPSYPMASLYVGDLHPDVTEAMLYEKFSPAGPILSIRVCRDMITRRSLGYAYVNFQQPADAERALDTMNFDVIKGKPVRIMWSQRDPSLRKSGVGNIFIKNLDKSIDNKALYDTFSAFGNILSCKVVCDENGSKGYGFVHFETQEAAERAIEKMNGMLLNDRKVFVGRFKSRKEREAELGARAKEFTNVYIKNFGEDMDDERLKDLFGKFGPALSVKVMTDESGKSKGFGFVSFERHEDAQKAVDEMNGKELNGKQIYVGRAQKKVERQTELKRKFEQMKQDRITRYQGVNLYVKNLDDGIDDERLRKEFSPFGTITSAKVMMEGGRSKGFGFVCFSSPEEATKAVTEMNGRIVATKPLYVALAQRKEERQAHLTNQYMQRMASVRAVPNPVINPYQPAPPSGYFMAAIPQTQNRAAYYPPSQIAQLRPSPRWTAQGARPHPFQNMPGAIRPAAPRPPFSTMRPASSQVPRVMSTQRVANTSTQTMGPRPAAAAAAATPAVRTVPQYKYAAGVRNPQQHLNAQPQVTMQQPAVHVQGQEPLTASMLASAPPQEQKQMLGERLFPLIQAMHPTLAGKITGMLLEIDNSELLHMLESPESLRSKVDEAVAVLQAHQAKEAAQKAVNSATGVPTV

T8 sequence (P12956 whole entry): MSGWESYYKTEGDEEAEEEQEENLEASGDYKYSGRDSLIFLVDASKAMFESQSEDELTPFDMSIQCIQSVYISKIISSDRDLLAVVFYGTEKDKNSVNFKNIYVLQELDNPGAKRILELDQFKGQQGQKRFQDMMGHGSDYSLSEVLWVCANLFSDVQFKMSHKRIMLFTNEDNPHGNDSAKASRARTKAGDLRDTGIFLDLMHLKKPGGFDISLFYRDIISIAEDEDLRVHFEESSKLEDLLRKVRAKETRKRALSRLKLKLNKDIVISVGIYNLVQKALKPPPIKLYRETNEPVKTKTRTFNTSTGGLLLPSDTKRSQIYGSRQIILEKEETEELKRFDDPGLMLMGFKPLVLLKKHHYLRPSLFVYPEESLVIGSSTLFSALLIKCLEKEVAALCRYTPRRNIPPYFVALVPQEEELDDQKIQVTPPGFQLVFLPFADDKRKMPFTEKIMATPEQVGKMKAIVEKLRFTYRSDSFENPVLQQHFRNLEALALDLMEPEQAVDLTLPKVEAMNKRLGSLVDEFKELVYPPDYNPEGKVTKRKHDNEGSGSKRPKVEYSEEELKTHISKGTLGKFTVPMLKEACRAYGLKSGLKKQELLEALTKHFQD
T7 sequence (Q15120 whole entry): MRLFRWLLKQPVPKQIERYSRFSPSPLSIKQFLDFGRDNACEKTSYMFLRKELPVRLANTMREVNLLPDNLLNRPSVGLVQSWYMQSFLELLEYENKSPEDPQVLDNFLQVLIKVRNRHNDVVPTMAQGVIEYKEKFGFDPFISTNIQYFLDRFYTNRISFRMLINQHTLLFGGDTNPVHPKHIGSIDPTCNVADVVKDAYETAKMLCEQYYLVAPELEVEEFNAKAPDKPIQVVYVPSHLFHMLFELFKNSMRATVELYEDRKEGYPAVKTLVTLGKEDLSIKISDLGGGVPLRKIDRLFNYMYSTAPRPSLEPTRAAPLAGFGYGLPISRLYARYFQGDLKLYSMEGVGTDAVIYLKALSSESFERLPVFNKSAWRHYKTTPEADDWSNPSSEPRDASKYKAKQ
T9 sequence (P62820 whole entry): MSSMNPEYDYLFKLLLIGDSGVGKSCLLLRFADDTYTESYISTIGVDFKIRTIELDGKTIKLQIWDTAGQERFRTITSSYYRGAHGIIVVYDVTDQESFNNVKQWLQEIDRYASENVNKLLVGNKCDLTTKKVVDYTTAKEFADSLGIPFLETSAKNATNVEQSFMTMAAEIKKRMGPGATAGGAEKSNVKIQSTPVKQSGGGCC
T10 sequence (Q99873 whole entry): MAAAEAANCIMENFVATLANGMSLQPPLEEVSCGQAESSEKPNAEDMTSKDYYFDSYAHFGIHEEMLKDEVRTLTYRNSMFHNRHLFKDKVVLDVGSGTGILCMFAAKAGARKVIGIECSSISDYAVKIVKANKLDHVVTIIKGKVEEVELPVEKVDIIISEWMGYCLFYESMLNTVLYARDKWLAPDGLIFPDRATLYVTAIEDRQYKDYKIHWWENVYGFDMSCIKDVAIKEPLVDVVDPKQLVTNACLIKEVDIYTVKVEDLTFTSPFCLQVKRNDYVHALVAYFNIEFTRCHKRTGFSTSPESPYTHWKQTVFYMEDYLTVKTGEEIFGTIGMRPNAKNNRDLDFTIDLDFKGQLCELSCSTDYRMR
T11 sequence (P06753 whole entry): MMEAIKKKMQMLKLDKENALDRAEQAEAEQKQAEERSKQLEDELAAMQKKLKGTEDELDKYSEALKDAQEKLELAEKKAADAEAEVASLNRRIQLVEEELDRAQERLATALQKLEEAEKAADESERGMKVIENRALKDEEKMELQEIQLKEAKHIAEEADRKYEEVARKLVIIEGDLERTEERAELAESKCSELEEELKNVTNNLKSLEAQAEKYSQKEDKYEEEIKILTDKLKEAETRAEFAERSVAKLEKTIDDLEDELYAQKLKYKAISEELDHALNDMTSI
T13 sequence (Q14203 whole entry): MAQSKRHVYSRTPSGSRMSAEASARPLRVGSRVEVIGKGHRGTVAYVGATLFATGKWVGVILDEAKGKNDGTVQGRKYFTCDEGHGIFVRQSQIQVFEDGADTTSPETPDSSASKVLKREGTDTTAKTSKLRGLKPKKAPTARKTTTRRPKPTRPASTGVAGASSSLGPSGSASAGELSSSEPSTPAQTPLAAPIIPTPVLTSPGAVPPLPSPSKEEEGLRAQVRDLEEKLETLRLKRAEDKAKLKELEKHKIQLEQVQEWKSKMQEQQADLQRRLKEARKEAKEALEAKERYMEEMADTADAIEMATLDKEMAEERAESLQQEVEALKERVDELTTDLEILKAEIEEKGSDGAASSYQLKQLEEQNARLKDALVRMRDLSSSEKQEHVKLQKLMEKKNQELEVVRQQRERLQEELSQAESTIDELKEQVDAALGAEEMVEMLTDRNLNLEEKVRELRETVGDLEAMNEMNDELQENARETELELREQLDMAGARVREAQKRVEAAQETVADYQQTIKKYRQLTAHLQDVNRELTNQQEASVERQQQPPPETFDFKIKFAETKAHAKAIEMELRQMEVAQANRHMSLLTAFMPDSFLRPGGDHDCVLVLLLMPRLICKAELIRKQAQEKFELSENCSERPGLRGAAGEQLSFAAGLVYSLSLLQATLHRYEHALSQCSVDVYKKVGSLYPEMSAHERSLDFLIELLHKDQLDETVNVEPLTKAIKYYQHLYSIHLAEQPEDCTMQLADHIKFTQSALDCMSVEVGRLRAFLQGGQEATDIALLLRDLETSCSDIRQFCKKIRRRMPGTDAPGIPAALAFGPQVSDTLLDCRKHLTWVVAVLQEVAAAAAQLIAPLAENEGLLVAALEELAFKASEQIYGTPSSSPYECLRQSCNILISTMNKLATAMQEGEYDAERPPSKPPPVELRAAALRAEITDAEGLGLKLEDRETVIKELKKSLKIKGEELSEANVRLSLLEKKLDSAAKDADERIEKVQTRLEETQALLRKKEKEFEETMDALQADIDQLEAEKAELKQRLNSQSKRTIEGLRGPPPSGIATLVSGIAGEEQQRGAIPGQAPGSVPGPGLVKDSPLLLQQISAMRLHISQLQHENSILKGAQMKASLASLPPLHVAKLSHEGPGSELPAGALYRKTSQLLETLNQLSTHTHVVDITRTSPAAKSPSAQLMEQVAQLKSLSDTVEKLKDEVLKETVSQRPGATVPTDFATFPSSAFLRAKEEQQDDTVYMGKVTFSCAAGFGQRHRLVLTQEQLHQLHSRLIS
T2 sequence (Q15436 whole entry): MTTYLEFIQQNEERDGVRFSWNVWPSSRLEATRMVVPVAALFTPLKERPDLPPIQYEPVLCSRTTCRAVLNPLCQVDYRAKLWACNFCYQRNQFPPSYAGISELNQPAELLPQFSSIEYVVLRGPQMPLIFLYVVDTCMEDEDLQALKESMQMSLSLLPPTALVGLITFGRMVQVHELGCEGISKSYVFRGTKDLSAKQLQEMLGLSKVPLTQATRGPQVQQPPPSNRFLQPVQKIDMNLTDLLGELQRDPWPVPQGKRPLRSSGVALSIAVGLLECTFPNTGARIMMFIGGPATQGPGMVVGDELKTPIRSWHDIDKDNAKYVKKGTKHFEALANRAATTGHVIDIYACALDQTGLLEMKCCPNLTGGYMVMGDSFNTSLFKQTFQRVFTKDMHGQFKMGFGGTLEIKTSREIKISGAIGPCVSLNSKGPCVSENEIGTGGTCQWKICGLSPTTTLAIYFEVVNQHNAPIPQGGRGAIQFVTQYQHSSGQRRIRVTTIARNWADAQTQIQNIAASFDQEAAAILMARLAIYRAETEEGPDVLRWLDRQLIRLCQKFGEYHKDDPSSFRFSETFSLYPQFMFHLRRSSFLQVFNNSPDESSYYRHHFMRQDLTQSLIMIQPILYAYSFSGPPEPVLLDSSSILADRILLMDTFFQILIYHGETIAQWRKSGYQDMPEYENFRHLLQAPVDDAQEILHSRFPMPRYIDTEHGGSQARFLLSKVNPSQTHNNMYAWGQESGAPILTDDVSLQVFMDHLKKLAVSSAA
T16 sequence (Q71U36 whole entry): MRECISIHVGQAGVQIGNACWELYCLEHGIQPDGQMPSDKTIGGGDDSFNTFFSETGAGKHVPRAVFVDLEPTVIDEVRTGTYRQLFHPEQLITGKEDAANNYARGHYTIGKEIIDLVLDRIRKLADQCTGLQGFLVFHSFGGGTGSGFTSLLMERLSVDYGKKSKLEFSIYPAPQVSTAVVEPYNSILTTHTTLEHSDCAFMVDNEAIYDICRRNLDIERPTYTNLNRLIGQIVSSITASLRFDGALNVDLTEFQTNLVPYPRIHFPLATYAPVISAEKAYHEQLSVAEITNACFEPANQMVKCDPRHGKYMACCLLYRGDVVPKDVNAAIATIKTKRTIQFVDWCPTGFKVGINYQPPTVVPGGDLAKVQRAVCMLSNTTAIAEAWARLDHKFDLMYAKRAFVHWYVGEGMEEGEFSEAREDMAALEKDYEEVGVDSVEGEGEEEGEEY

NCCCNc1ccc(C(=O)NC(CCC(=O)O)C(=O)O)cc1 (centres unmarked) [compound 7]
fold changes relative to vehicle control [1]: 1.29
fold changes relative to vehicle control [2]: 1.1
fold changes relative to vehicle control [3]: 1.02
fold changes relative to vehicle control [4]: 0.97
fold changes relative to vehicle control [5]: 0.97
fold changes relative to vehicle control [6]: 1
fold changes relative to vehicle control [7]: 0.99
fold changes relative to vehicle control [8]: 0.92
fold changes relative to vehicle control [9]: 1.07
fold changes relative to vehicle control [10]: 0.91
fold changes relative to vehicle control [11]: 1.1
fold changes relative to vehicle control [12]: 0.88
fold changes relative to vehicle control [13]: 1.03
fold changes relative to vehicle control [14]: 0.99
fold changes relative to vehicle control [15]: 1.12
fold changes relative to vehicle control [16]: 1
fold changes relative to vehicle control [17]: 1.05
